The values below come from US20230085307A1, “PYRIDAZINONE COMPOUND AND HERBICIDE” (NISSAN CHEMICAL CORPORATION, priority 2019, published 2023).

The test system of one assay is southern crabgrass. Put plainly: Test Example 5: herbicidal effect by foliage application, plastic box (Table 20, symbol F). In kind it is in vivo, southern crabgrass (Digitaria ciliaris). Conditions: foliage application, 320 g/ha, three weeks after application. Put shortly: (§1)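 Plants were sown into sterilized diluvial soil under about 1.5 cm cover and kept in a greenhouse at 25° C. to 30° C. Fourteen days on, foliage received an even spray of the diluted emulsion. Herbicidal or crop effect was judged three weeks afterwards.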

The next assay has as its system green foxtail. Put plainly: Test Example 5: herbicidal effect by foliage application, plastic box (Table 20, symbol G). Conditions: foliage application, 320 g/ha, three weeks after application. It counts as in vivo, green foxtail (Setaria viridis). Summed up: as §1
Assay [1] has as its system barnyard grass. Put plainly: Test Example 5: herbicidal effect by foliage application, plastic box (Table 20, symbol H). It counts as in vivo, barnyard grass (Echinochloa crus-galli). Conditions: foliage application, 320 g/ha, three weeks after application. Put shortly:
as §1

The test system of the next assay is wild oat. Put plainly: Test Example 5: herbicidal effect by foliage application, plastic box (Table 20, symbol I). In kind it is in vivo, wild oat (Avena fatua). Conditions: foliage application, 320 g/ha, three weeks after application. Put shortly:
as §1

The next assay has as its system blackgrass. Put plainly: Test Example 5: herbicidal effect by foliage application, plastic box (Table 20, symbol J). Conditions: foliage application, 320 g/ha, three weeks after application. In kind it is in vivo, blackgrass (Alopecurus myosuroides). Put shortly: as §1
The test system of the next assay is Italian ryegrass. Put plainly: Test Example 5: herbicidal effect by foliage application, plastic box (Table 20, symbol K). It counts as in vivo, Italian ryegrass (Lolium multiflorum). Conditions: foliage application, 320 g/ha, three weeks after application. Summed up:
as §1

The test system of the next assay is windgrass. Put plainly: Test Example 5: herbicidal effect by foliage application, plastic box (Table 20, symbol L). It counts as in vivo, windgrass (Apera spica-venti). Conditions: foliage application, 320 g/ha, three weeks after application. Summed up:
as §1

The test system of the next assay is velvetleaf. Put plainly: Test Example 5: herbicidal effect by foliage application, plastic box (Table 20, symbol M). In kind it is in vivo, velvetleaf (Abutilon theophrasti). Conditions: foliage application, 320 g/ha, three weeks after application. Summed up:
as §1

For the next assay, the system named is lambsquarters. Put plainly: Test Example 5: herbicidal effect by foliage application, plastic box (Table 20, symbol O). It counts as in vivo, lambsquarters (Chenopodium album). Conditions: foliage application, 320 g/ha, three weeks after application. Summed up:
as §1

The test system of a further assay is false cleavers. Put plainly: Test Example 5: herbicidal effect by foliage application, plastic box (Table 20, symbol Q). Conditions: foliage application, 320 g/ha, three weeks after application. It counts as in vivo, false cleavers (Galium spurium). The text has this:
[Test Example 5] Herbicidal Effect Test by Foliage Application
Sterilized diluvial soil was placed in a plastic box having a length of 21 cm, a width of 13 cm, and a depth of 7 cm. The seeds of each of southern crabgrass, green foxtail, barnyard grass, wild oat, blackgrass, Italian ryegrass, windgrass, velvetleaf, redroot pigweed, lambsquarters, chickweed, false cleavers, persian speedwell, corn, soybean, rice, wheat, beet, and rapeseed were sowed in a spot-like manner and covered with the soil having a thickness of about 1.5 cm. Thereafter, the plants were grown in a greenhouse at 25° C. to 30° C. After 14-day growth of the plants, the emulsion agent of the compound of the present invention prepared according to Formulation Example 2 was diluted with water so as to achieve a predetermined herbicide amount, and the diluted emulsion agent was uniformly applied to a foliage part with a small-sized spray. Three weeks after the herbicide application, the effect of the herbicide on each plant was evaluated according to the criteria of Test Example 1.

In another assay the test system is persian speedwell. Put plainly: Test Example 5: herbicidal effect by foliage application, plastic box (Table 20, symbol R). In kind it is in vivo, Persian speedwell (Veronica persica). Conditions: foliage application, 320 g/ha, three weeks after application. Put shortly:
as §1

In assay [2] the test system is barnyard grass. Put plainly: Test Example 3: herbicidal effect by foliage application, Wagner pot (Table 18, symbol H). It counts as in vivo, barnyard grass (Echinochloa crus-galli). Conditions: 320 g/ha. Put shortly: (§2)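 Plants were sown in alluvial soil held under 0.1–0.5 cm standing water and grown 14 days in a greenhouse at 25–30 °C. An emulsifiable formulation, water-diluted to the set dose, was then sprayed onto the foliage, and effects were scored three weeks later using previously defined criteria.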

In a further assay the test system is Chinese sprangletop. Put plainly: Test Example 3: herbicidal effect by foliage application, Wagner pot (Table 18, symbol D). It counts as in vivo, chinese sprangletop (Leptochloa chinensis). Conditions: 320 g/ha. Put shortly:
as §2

The next assay has as its system rice flat sedge. Put plainly: Test Example 3: herbicidal effect by foliage application, Wagner pot (Table 18, symbol E). In kind it is in vivo, rice flat sedge (Cyperus iria). Conditions: 320 g/ha. Summed up: as §2

In the case of `COc1cc2sc(-c3ccc(F)cc3)c(-c3c(O)c(C)nn(C)c3=O)c2cc1OC` [5-057], the “herbicidal effect on southern crabgrass (F)” value in the assay with southern crabgrass is 0 (Herbicidal rate of 5% or less (almost no effect)). For the same molecule, in the assay with green foxtail, the “herbicidal effect on green foxtail (G)” value was 0 (Herbicidal rate of 5% or less (almost no effect)). Moreover, in the assay on barnyard grass [1], the “herbicidal effect on barnyard grass (H)” value is 0 (Herbicidal rate of 5% or less (almost no effect)). The “herbicidal effect on wild oat (I)” value in the assay with wild oat was 0 (Herbicidal rate of 5% or less (almost no effect)). In addition, the “herbicidal effect on blackgrass (J)” value in the assay with blackgrass is recorded as 0 (Herbicidal rate of 5% or less (almost no effect)). Further, the “herbicidal effect on Italian ryegrass (K)” value in the assay with Italian ryegrass is reported as 0 (Herbicidal rate of 5% or less (almost no effect)). Besides, the “herbicidal effect on windgrass (L)” value with windgrass is reported as 0 (Herbicidal rate of 5% or less (almost no effect)). Moreover, the “herbicidal effect on velvetleaf (M)” value in the assay on velvetleaf is on record as 0 (Herbicidal rate of 5% or less (almost no effect)). Moreover, the “herbicidal effect on lambsquarters (O)” value with lambsquarters is reported as 0 (Herbicidal rate of 5% or less (almost no effect)). Further, in the assay on false cleavers, the “herbicidal effect on false cleavers (Q)” value is on record as 0 (Herbicidal rate of 5% or less (almost no effect)). In the assay on persian speedwell, the “herbicidal effect on persian speedwell (R)” value is 4 (Herbicidal rate of 70% or more and less than 90%).

Take `CCOc1ccccc1-c1cc2c(-c3c(O)c(C)nn(C)c3=O)c(-c3ccccc3OCC)sc2cc1OC` [5-079]: the “herbicidal effect on barnyard grass (H)” value was 3 (Herbicidal rate of 40% or more and less than 70%) in the assay with barnyard grass [2]; 0 (Herbicidal rate of 5% or less (almost no effect)) with barnyard grass [1]. Moreover, in the assay on Chinese sprangletop, the “herbicidal effect on Chinese sprangletop (D)” value was 0 (Herbicidal rate of 5% or less (almost no effect)). In addition, in the assay with rice flat sedge, the “herbicidal effect on rice flat sedge (E)” value is 0 (Herbicidal rate of 5% or less (almost no effect)). Further, the “herbicidal effect on southern crabgrass (F)” value in the assay on southern crabgrass is 0 (Herbicidal rate of 5% or less (almost no effect)). Besides, the “herbicidal effect on green foxtail (G)” value with green foxtail is 0 (Herbicidal rate of 5% or less (almost no effect)). For the same molecule, the “herbicidal effect on wild oat (I)” value with wild oat is listed as 0 (Herbicidal rate of 5% or less (almost no effect)). Also, the “herbicidal effect on blackgrass (J)” value with blackgrass is listed as 0 (Herbicidal rate of 5% or less (almost no effect)). Also, in the assay with Italian ryegrass, the “herbicidal effect on Italian ryegrass (K)” value was 0 (Herbicidal rate of 5% or less (almost no effect)). Further, in the assay with windgrass, the “herbicidal effect on windgrass (L)” value is reported as 0 (Herbicidal rate of 5% or less (almost no effect)). In addition, the “herbicidal effect on velvetleaf (M)” value in the assay on velvetleaf is on record as 0 (Herbicidal rate of 5% or less (almost no effect)). Moreover, the “herbicidal effect on lambsquarters (O)” value in the assay on lambsquarters is on record as 0 (Herbicidal rate of 5% or less (almost no effect)). Moreover, in the assay with false cleavers, the “herbicidal effect on false cleavers (Q)” value is 5 (Herbicidal rate of 90% or more (almost completely withered)). For the same molecule, in the assay with persian speedwell, the “herbicidal effect on persian speedwell (R)” value is given as 0 (Herbicidal rate of 5% or less (almost no effect)).
